Laboratory results: patent US20150010932A1, “METHODS FOR ASSAYING PROTEIN-PROTEIN INTERACTIONS” (Salk Institute for Biological Studies, priority 2013, published 2015)
Entries after “also recorded” stand apart in the source; their conditions may differ. Bridges are numbered along the chain shown (N, C = ends). [ ]: non-standard residue; d: D form. Ahx = NCCCCCC(=O)O

How the values were obtained:
[1] = test system: Normal human fibroblasts (WS1 cells); experiment: Lactate dehydrogenase (LDH) leakage assay, WS1 fibroblasts; assay type: cell-based; settings: 25 μM and 10 μM, 6 hours, no serum
Source text: (§1) Accumulation of cytoplasmic lactate dehydrogenase (LDH) in the growth medium was used as a metric of cell membrane damage. LDH was detected by the CytoTox 96 Non-Radioactive Cytotoxicity Assay Kit (Promega). The 0.8% Triton X-100 treatment (Lysed) represents the maximum LDH leakage in this experiment and its reading was set to 100%. DMSO treatment served as the vehicle control and provided an indication of the presence of trace amounts of LDH in the serum and spontaneous LDH leakage from cells. The value obtained in the presence of DMSO was set to 0%. Data are shown as mean±SD (n=3). (B) Normal human fibroblasts (WS 1 cells) were treated exactly as in (A). Data are shown as mean±SD (n=3).S
(§2) Saos-2 and WS 1 cells were seeded into 96-well plates (20,000 cells per well) and incubated at 37° C. […] LDH leakage into media was detected by the CytoTox 96 Non-Radioactive Cytotoxicity Assay Kit (Promega G1780) per manufacture's protocol. Assay background was evaluated by using the LDH reading from wells containing only media and PPI antagonists with or without 10% FBS and was subtracted from the values obtained in the presence of the PPI antagonists. Cells lysed by 0.8% Triton X-100 (provided by the Kit), a concentration sufficient to ensure lyse all cells but low enough not to interfere with the LDH assay, represents the maximum LDH leakage in this experiment and its reading is set to 100%. […]

Saos-2 cells = experiment: Lactate dehydrogenase (LDH) leakage assay, Saos-2 cells; settings: 25 μM and 10 μM, 6 hours, no serum
Source text: as §1, §2

p53-Mdm2 complexes [2] = molecular target: T1, p53-Mdm2 complexes (Homo sapiens, UniProt Q00987); experiment: BiLC assay using cell lysates, p53-Mdm2; assay type: biochemical; settings: no FBS
T1 construct: cLuc-linker-FLAG-Mdm2-108 (generated); cLuc (C-terminal split firefly luciferase fragment, amino acids 398-550); expressed in transfected cells; host or cells: Saos-2 134-385 (single-copy RMCE integration, doxycycline-induced); the lysate assay text says Saos-2 or U2OS reporter cells
T1 sequence (Q00987 2-108, one chain of several): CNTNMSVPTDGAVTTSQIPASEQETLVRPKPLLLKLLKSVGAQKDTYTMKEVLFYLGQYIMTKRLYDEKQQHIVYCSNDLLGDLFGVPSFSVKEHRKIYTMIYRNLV
Procedure: FIGS. 5A and 5B show a set of graphs illustrating that the BiLC lysate assay can be used to determine if serum prevents SAH peptides from disrupting p53-Mdm2 or p53-Mdm4 complexes. (A) Cell lysates obtained from nLuc-p53 and cLuc-Mdm2 or nLuc-p53 and cLuc-Mdm4 ReBiL expressing reporter cells were incubated with the indicated PPI antagonists in the absence of FBS in a 384-well plate at room temperature for 10 minutes. Steady-Glo luciferase reagent was added, and luminescence was measured in a Tecan M200 luminometer at 26° C. Data are shown as mean±standard deviation (n=3) and normalized to the luminescent reading of DMSO (set to 100%). (B) The BiLC lysate assays were identical to (A) except for the inclusion of 10% FBS. Data are shown as mean±standard deviation (n=3) and normalized to the luminescent reading of DMSO (set to 100%).
(§3) (A) Small molecule PPI antagonists were tested in p53-Mdm2 and p53-Mdm4 BiLC lysate assays without FBS. […] Data are shown as mean±standard deviation (n=3) and normalized to the luminescent reading of DMSO (set to 100%).
The 4× concentrated drugs diluted in DMEM/F12 media were pipetted into 384 well plates, 10 μl per well. […] 20 μl of luciferin reagents were added (Promega Bright-Glo E2620 or Steady-Glo E2520) into each well and luminescence was measured in a Tecan M200: integration time 0.5 seconds, 3˜5 minutes per cycle for total 30 minutes at 26° C.

p53-Mdm4 complexes [3] = molecular target: T2, p53-Mdm4 complexes (Homo sapiens, UniProt O15151); experiment: Real-time BiLC (ReBiL) assay in living cells, p53-Mdm4 reporter (Saos-2 134-354)
T2 sequence (O15151 2-111): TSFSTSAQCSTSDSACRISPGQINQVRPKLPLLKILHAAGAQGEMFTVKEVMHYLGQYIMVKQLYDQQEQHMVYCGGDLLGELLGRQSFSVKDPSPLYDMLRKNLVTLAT

p53-Mdm4 complexes [4] = molecular target: T2, p53-Mdm4 complexes; experiment: BiLC assay using cell lysates, p53-Mdm4; assay type: biochemical; set-up: 2-111) was cloned into pLi317; cLuc (C-terminal split firefly luciferase fragment, amino acids 398-550; expressed in transfected cells; host or cells: Saos-2 134-354 (single-copy RMCE integration, doxycycline-induced); the lysate assay text says Saos-2 or U2OS reporter cells; settings: no FBS
Procedure: (A) Cell lysates obtained from nLuc-p53 and cLuc-Mdm2 or nLuc-p53 and cLuc-Mdm4 ReBiL expressing reporter cells were incubated with the indicated PPI antagonists in the absence of FBS in a 384-well plate at room temperature for 10 minutes. Steady-Glo luciferase reagent was added, and luminescence was measured in a Tecan M200 luminometer at 26° C. Data are shown as mean±standard deviation (n=3) and normalized to the luminescent reading of DMSO (set to 100%). (B) The BiLC lysate assays were identical to (A) except for the inclusion of 10% FBS. Data are shown as mean±standard deviation (n=3) and normalized to the luminescent reading of DMSO (set to 100%).
as §3
The 4× concentrated drugs diluted in DMEM/F12 media were pipetted into 384 well plates, 10 μl per well. Cells were washed with PBS-twice and lysed with PLB buffer (100 mM Tris-HCl pH 7.5; 0.5 mM EDTA; 150 mM NaCl; 0.1% Triton X-100, 1 mM sodium orthovanadate, 50 mM sodium fluoride, and Roche Complete Mini Protease Inhibitor Cocktail). […] The clear lysates were collected, diluted with DMEM (˜300 μl DMEM added into 100 μl lysates); 10 μl of diluted lysates were pipetted into each of the 384-wells, and the plates were incubated at room temperature for 10 minutes. 20 μl of luciferin reagents were added (Promega Bright-Glo E2620 or Steady-Glo E2520) into each well and luminescence was measured in a Tecan M200: integration time 0.5 seconds, 3˜5 minutes per cycle for total 30 minutes at 26° C.

p53-Mdm2 complexes [5] = molecular target: T1, p53-Mdm2 complexes; experiment: Real-time BiLC (ReBiL) assay in living cells, p53-Mdm2 reporter (Saos-2 134-385); assay type: cell-based
Procedure: Data shown are mean±standard deviation (n=8). […] Actin was used as a loading control. […] Luminescent signals were measured every 10 minutes for 10 hours in a Tecan-M200 at 37° C. Data shown are mean±standard deviation (n=4). […] The nLuc-p53 and cLuc-Mdm2 fusion proteins were detected by anti-FLAG and anti-HA antibodies, respectively, and Actin was used as a loading control.
At Time=0, the cells were washed with Dulbecco's modified Eagle medium (DMEM) once, and treated with new media containing different PPI antagonists and with or without 10% fetal bovine serum (FBS).
Two strategies were used to avert cytotoxicity or cell cycle arrest that could be generated by wild type p53 activation. First, p53 null Saos-2 cells were used as the host cell line for ReBiL reporters.
The Saos-2 ReBiL reporter cells were washed, trypsinized and cell numbers were determined. […] Supernatants were discarded, ReBiL reporter cells were resuspended with DMEM/F12 (phenol-red free) and 20 μl cells were pipetted into each well. […]
(a) The following protocol was used to evaluate small molecule PPI antagonists. […] The next day, the cells were washed, trypsinized, and cell numbers were determined. […] The plate was sealed with a MicroAmp Optical Adhesive Film, and luminescence was measured in a Tecan M200: integration time 2 seconds, 5˜10 minutes per cycle for total 6 hours at 37° C.

[6] = molecular target: T3, Mdm2-Mdm4 N-terminal BiLC pair (Homo sapiens, UniProt O15151+Q00987); experiment: Real-time BiLC assay in U2OS Mdm4-111/Mdm2-108 ReBiL reporter cells (U2OS 134-544); assay type: cell-based; settings: U2OS 134-544 cells, compound with doxycycline at Time=0, 24 hours
T3 construct: linker-FLAG-Mdm2-108 (generated by; 2-111) was cloned into pLi223; cLuc (split firefly luciferase amino acids 398-550); nLuc (split firefly luciferase amino acids 1-416); expressed in transfected cells; host or cells: U2OS 134-544 (RMCE integration, doxycycline-induced)
T3 sequence (Q00987 2-108, one chain of several): as the sequence (Q00987 2-108, one chain of several) above
Source text: Data are shown as mean±standard deviation (n=6). […] Data are shown as mean±standard deviation (n=4).

[7] = living Saos-2 cells, doxycycline withdrawal, small molecule protocol

Compound | LDH leakage (cell membrane damage), absence of serum (Saos-2 cells) | p53-Mdm2 disruption in lysate BiLC assay, without FBS (p53-Mdm2 complexes [2]) | p53-Mdm4 disruption in lysate BiLC assay, without FBS (p53-Mdm4 complexes [4]) | further results
COc1ccc(C2=N[C@@H](c3ccc(Cl)cc3)[C@@H](c3ccc(Cl)cc3)N2C(=O)N2CCNC(=O)C2)c(OC(C)C)c1 [Nutlin-3a] | failed to induce membrane leakage |  |  | LDH leakage (cell membrane damage), absence of serum [1]: failed to induce membrane leakage
CCOc1cc(/C=C2/C(=O)N(c3ccccc3)N=C2C)cc(Cl)c1OCC(=O)OC [SJ-172550] |  | no activity | no activity; also recorded: poor p53/Mdm4 antagonist | p53-Mdm4 BiLC signal (newly synthesized complexes) (p53-Mdm4 complexes [3]; living Saos-2 134-354 cells, compound added with doxycycline at Time=0, 10% FBS): No decrease in p53-Mdm4 luciferase signal was detected; also recorded: virtually no activity
MI-219 |  |  |  | Ability to interfere selectively with p53-Mdm2 interaction (p53-Mdm2 complexes [5]; ReBiL strategy): interfere selectively with p53-Mdm2 interaction was confirmed
RO-5963 |  | no activity | no activity | Mdm2-Mdm4 N-terminal domain association (luminescent signal) [6]: increased luminescent signals were detected; Disruption of pre-formed p53-Mdm2 BiLC complexes (p53-Mdm2 complexes [5]; [7]): did not efficiently disrupt; Disruption of pre-formed p53-Mdm4 BiLC complexes (p53-Mdm4 complexes [3]; [7]): did not efficiently disrupt
cyclo(ACICRGNGYCG[Ahx]TSFAEYWNLLSGVCPKILQRCRRDSDCPG) (disulfide 2-26, 4-33, 10-39) [McoTi-1-PMI] | all except one (McoTi-1-PMI), damage cell membranes |  |  | 
